Among the test systems are OVCAR-3 ovarian; BT-549 breast; SK-MEL-5 melanoma; MDA-MB-231 breast; SR leukemia; UO-31 renal; CCRF-CEM leukemia; SF-268 CNS; SNB-19 CNS; A549 NSCLC.
Common to all, as to experiment: inhibition of tumour cell growth, NCI panel, 48 h

Where “and” joins values, the source holds several entries; their conditions need not be identical. Identical values can stand only once.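 Grown in 96-well plates, cells were treated for 48 hours with each compound at five concentrations. Insufficient inhibition: endpoint recorded as highest concentration tested. Here, GI50 denotes the concentration required for 50% inhibition of growth. TGI: concentration producing complete growth inhibition.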

As for `CC[C@]12C=CCN3CC[C@]4(C(=C(C(=O)OC)C1)Nc1cc5c(cc14)[C@@H]1[C@H](O5)[C@@H](O)[C@@]4(CC)CC(C(=O)OC)=C5Nc6ccccc6[C@@]56CCN1[C@@H]46)[C@@H]32`, the GI50 in the experiment with OVCAR-3 ovarian was 240 nM and 255 nM; in the experiment on BT-549 breast it was 913 nM and 2490 nM; with SK-MEL-5 melanoma, 662 nM and 348 nM; with MDA-MB-231 breast, 155 nM and 395 nM; in the experiment with SR leukemia, 92.2 nM and 146 nM; with UO-31 renal it was 95.1 nM and 127 nM. Further, the GI50 in the experiment with CCRF-CEM leukemia is 238 nM and 345 nM; in the experiment on SF-268 CNS, 1150 nM and 1200 nM; in the experiment on SNB-19 CNS it was 644 nM and 592 nM; in the experiment with A549 NSCLC it was 1200 nM and 875 nM. Also, the TGI in the experiment with OVCAR-3 ovarian was 1130 nM and 1290 nM; with BT-549 breast it was 25000 nM and > 100000 nM; with SK-MEL-5 melanoma, 4010 nM and 1480 nM; in the experiment with MDA-MB-231 breast, 10200 nM and 28900 nM; in the experiment on SR leukemia, 25000 nM and > 100000 nM; in the experiment on UO-31 renal, 3310 nM and 6250 nM. The TGI was 25000 nM and > 100000 nM in the experiment with CCRF-CEM leukemia; 19700 nM and 54500 nM with SF-268 CNS; 25000 nM and 42100 nM in the experiment on SNB-19 CNS; 12700 nM and > 100000 nM in the experiment on A549 NSCLC.

In the case of `CCOC(=O)c1c(C)n([O-])c2cc(F)c(F)cc2[n+]1=O`, the GI50 was 1100 nM in the experiment with OVCAR-3 ovarian; 1840 nM with BT-549 breast; 2310 nM with SK-MEL-5 melanoma; 955 nM in the experiment with MDA-MB-231 breast; 48.2 nM with SR leukemia; 1440 nM in the experiment with UO-31 renal. Besides, the GI50 with CCRF-CEM leukemia was 1100 nM; with SF-268 CNS, 1570 nM; with SNB-19 CNS it was 1530 nM; with A549 NSCLC, 6780 nM. Also, the TGI was 2420 nM in the experiment with OVCAR-3 ovarian; 3640 nM with BT-549 breast; 5450 nM with SK-MEL-5 melanoma; 2580 nM with MDA-MB-231 breast; > 100000 nM in the experiment on SR leukemia; 2850 nM with UO-31 renal. Besides, the TGI is 7840 nM with CCRF-CEM leukemia, 3690 nM in the experiment on SF-268 CNS, 2860 nM in the experiment with SNB-19 CNS and 26000 nM in the experiment on A549 NSCLC.

`CCc1ccc(Oc2c(-c3ccc(OCCc4cccc(C(F)(F)F)c4)cc3O)n[nH]c2C(F)(F)F)cc1`: the GI50 in the experiment on OVCAR-3 ovarian was 1520 nM; in the experiment on BT-549 breast, 6170 nM; in the experiment with SK-MEL-5 melanoma, 5130 nM; in the experiment with MDA-MB-231 breast it was 4940 nM; with SR leukemia it was 3060 nM; in the experiment on UO-31 renal, 2070 nM. The GI50 with CCRF-CEM leukemia was 2550 nM; in the experiment on SF-268 CNS, 5020 nM; in the experiment with SNB-19 CNS it was 2690 nM; with A549 NSCLC, 4890 nM. Moreover, the TGI worked out at 4660 nM with OVCAR-3 ovarian; 12500 nM in the experiment with BT-549 breast; 11000 nM in the experiment with SK-MEL-5 melanoma; 11100 nM in the experiment on MDA-MB-231 breast; 12000 nM with SR leukemia; 8080 nM with UO-31 renal. Besides, the TGI with CCRF-CEM leukemia was found to be 9180 nM; with SF-268 CNS, 11000 nM; with SNB-19 CNS it was 9030 nM; in the experiment with A549 NSCLC it was 11100 nM.

Consider `CS(=O)(=O)Nc1cc(-c2ccc3ncc(C#N)c(Nc4ccc(F)c(Cl)c4)c3c2)cnc1Cl`, for which the GI50 in the experiment on OVCAR-3 ovarian is 65.7 nM; in the experiment on BT-549 breast it was 54.2 nM; in the experiment on SK-MEL-5 melanoma it was 42.8 nM; in the experiment with MDA-MB-231 breast, 237 nM; with SR leukemia it was 161 nM; with UO-31 renal, 125 nM. For the same compound, the GI50 with CCRF-CEM leukemia was 91.1 nM; in the experiment with SF-268 CNS, 133 nM; with SNB-19 CNS it was 212 nM; in the experiment on A549 NSCLC, 468 nM. Also, the TGI in the experiment with OVCAR-3 ovarian came to 909 nM; in the experiment on BT-549 breast, 655 nM; in the experiment on SK-MEL-5 melanoma, 159 nM; in the experiment with MDA-MB-231 breast it was 786 nM; in the experiment with SR leukemia, 1120 nM; with UO-31 renal it was 1030 nM. The TGI is > 31000 nM with CCRF-CEM leukemia, 1640 nM in the experiment on SNB-19 CNS and 3120 nM in the experiment on A549 NSCLC.

Take `COc1cccc2nc(Nc3cccc(NC(=O)c4ccc(N5CCN(C)CC5)c(C(F)(F)F)c4)c3)ccc12`: the GI50 in the experiment on OVCAR-3 ovarian was 1210 nM; with BT-549 breast, 2790 nM; in the experiment with SK-MEL-5 melanoma, 1520 nM; in the experiment on MDA-MB-231 breast it was 1550 nM; in the experiment with SR leukemia, 1130 nM; in the experiment with UO-31 renal, 734 nM. The GI50 in the experiment with CCRF-CEM leukemia is 1400 nM; in the experiment with SF-268 CNS, 1500 nM; with SNB-19 CNS it was 1110 nM; with A549 NSCLC, 1430 nM. The TGI in the experiment on OVCAR-3 ovarian is 3070 nM; in the experiment with BT-549 breast, 9390 nM; in the experiment on SK-MEL-5 melanoma, 5030 nM; in the experiment on MDA-MB-231 breast it was 5880 nM; in the experiment with SR leukemia, 3450 nM; in the experiment with UO-31 renal, 1490 nM. Moreover, the TGI came to 50000 nM with CCRF-CEM leukemia, 7300 nM in the experiment on SF-268 CNS, 2290 nM with SNB-19 CNS and 5030 nM in the experiment on A549 NSCLC.

Regarding `CC(C)C[C@H](NC(=O)[C@@H](Cc1ccccc1)n1ccc(Nc2ccccc2)cc1=O)B(O)O`, the GI50 in the experiment on OVCAR-3 ovarian was 233 nM; in the experiment on BT-549 breast, 289 nM; in the experiment on SK-MEL-5 melanoma, 321 nM; in the experiment with MDA-MB-231 breast, 595 nM; with SR leukemia it was 95.5 nM; in the experiment with UO-31 renal, 561 nM. Besides, the GI50 with CCRF-CEM leukemia was 340 nM; in the experiment with SF-268 CNS, 385 nM; in the experiment with SNB-19 CNS, 714 nM; in the experiment on A549 NSCLC, 525 nM. The TGI in the experiment with OVCAR-3 ovarian stood at 561 nM; in the experiment on BT-549 breast, 2350 nM; in the experiment with SK-MEL-5 melanoma, 1140 nM; with MDA-MB-231 breast, 4370 nM; in the experiment with SR leukemia, 2020 nM; in the experiment on UO-31 renal, 3130 nM. The TGI was 5980 nM in the experiment on CCRF-CEM leukemia, 2310 nM in the experiment with SF-268 CNS, > 100000 nM in the experiment on SNB-19 CNS and 21600 nM in the experiment with A549 NSCLC.
